From patent publication US8158628B2, “Sulfonylated 1,2,3,4-tetrahydropyrrolo[1,2-a]pyrazine compounds and their use as pharmaceuticals” (Gruenenthal GmbH, priority 2009, dated 2012)

Columns and labels:
human B1R = molecular target: T1, human B1R (Homo sapiens, UniProt P46663); test: FLIPR Ca2+ functional assay, B1R antagonism, human B1R in CHO K1 cells; assay type: cell-based; conditions: test substance 10 μM; hB1R CHO K1 cells; agonist Lys-Des-Arg9 bradykinin at EC80; % of maximum achievable inhibition
T1 construct: expressed in transfected cells; host or cells: CHO K1 cells (Chinese hamster ovary), stably transfected
T1 sequence (P46663 1-353): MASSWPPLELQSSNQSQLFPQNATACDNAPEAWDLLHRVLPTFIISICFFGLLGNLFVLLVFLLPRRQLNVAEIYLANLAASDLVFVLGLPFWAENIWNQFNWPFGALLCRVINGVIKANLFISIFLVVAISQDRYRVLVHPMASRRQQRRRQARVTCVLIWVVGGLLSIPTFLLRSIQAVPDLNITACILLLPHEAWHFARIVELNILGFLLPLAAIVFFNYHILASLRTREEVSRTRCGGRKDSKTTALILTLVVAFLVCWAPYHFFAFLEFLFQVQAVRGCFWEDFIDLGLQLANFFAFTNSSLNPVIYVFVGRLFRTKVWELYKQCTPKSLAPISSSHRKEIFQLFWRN
Summary of the method: (§1)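 IC50 values come from varied compound concentrations applied 10-20 min before an EC80 agonist challenge, with Des-Arg9 bradykinin for rat and Lys-Des-Arg9 bradykinin for human receptor. Ca2+ influx in Fluo-4-loaded CHO K1 transfectants was measured by FLIPR peak fluorescence. Data are % inhibition vs maximum, n=2-3, N>=2.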

B1R of the rat = molecular target: T2, B1R of the rat (Rattus norvegicus, UniProt P97583); test: FLIPR Ca2+ functional assay, B1R antagonism, rat B1R in CHO K1 cells; assay type: cell-based; conditions: test substance 10 μM; rB1R CHO K1 cells; agonist Des-Arg9 bradykinin at EC80; % of maximum achievable inhibition
T2 construct: expressed in transfected cells; host or cells: CHO K1 cells (Chinese hamster ovary), stably transfected
T2 sequence (P97583 1-337): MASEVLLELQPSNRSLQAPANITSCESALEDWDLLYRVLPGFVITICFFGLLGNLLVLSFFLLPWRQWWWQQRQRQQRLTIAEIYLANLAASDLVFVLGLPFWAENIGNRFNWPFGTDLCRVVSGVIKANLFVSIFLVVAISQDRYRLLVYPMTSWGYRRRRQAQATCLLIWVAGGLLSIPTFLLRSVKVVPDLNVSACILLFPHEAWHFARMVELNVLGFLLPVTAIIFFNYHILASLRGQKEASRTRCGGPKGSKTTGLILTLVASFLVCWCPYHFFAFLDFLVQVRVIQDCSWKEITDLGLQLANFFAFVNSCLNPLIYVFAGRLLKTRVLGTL
Summary of the method: as §1

Compound | inhibition at 10 µM (human B1R) [%] | inhibition at 10 µM (B1R of the rat) [%]
Cc1ccc(S(=O)(=O)N2CCn3cccc3C2CC(=O)NC2CCc3cc(CN(C)C)ccc3C2)cc1Cl (stereo not shown) [Example 115, 2-[2-[(3-Chloro-4-methyl-phenyl)sulfonyl]-1,2,3,4-tetrahydro-pyrrolo[1,2-a]pyrazin-1-yl]-N-[6-(dimethylaminomethyl)-1,2,3,4-tetrahydro-naphthalen-2-yl]-acetamide] | 99.8 | 102
COc1cc(C)c(S(=O)(=O)N2CCn3cccc3C2COCC(=O)N2CCC(CN3CCN(C)CC3)C2)c(C)c1 (stereo not shown) [Example 37, 2-[[2-[(4-Methoxy-2,6-dimethyl-phenyl)sulfonyl]-1,2,3,4-tetrahydro-pyrrolo[1,2-a]pyrazin-1-yl]-methoxy]-1-[3-[(4-methyl-piperazin-1-yl)-methyl]-pyrrolidin-1-yl]-ethanone] | 97.8 | 104
Cc1ccc(S(=O)(=O)N2CCn3cccc3C2CC(=O)NC2CCCc3cc(CN4CCCCC4)ccc32)cc1 (stereo not shown) [Example 80, N-[6-(Piperidin-1-yl-methyl)-1,2,3,4-tetrahydro-naphthalen-1-yl]-2-[2-(p-tolylsulfonyl)-1,2,3,4-tetrahydro-pyrrolo[1,2-a]pyrazin-1-yl]-acetamide] | 99.8 | 101
COc1ccc2cc(S(=O)(=O)N3CCn4cccc4C3CC(=O)NC3CCc4cc(CN(C)C)ccc4C3)ccc2c1 (stereo not shown) [Example 96, N-[6-(Dimethylaminomethyl)-1,2,3,4-tetrahydro-naphthalen-2-yl]-2-[2-[(6-methoxy-naphthalen-2-yl)sulfonyl]-1,2,3,4-tetrahydro-pyrrolo[1,2-a]pyrazin-1-yl]-acetamide] | 99.9 | 102
CNCc1ccc2c(c1)CCC(NC(=O)CC1c3cccn3CCN1S(=O)(=O)c1ccc(C)c(Cl)c1)C2 (stereo not shown) [Example 138, 2-[2-[(3-Chloro-4-methyl-phenyl)sulfonyl]-1,2,3,4-tetrahydro-pyrrolo[1,2-a]pyrazin-1-yl]-N-[6-(methylamino-methyl)-1,2,3,4-tetrahydro-naphthalen-2-yl]-acetamide] | 99.8 | 103
COc1ccc2cc(S(=O)(=O)N3CCn4cccc4C3CC(=O)N[C@@H]3CCCc4cc(CN5CCCCC5)ccc43)ccc2c1 (stereo partly drawn) [Example 9, 2-(2-(6-Methoxynaphthalen-2-ylsulfonyl)-1,2,3,4-tetrahydropyrrolo[1,2-a]pyrazin-1-yl)-N—((R)-6-(piperidin-1-ylmethyl)-1,2,3,4-tetrahydronaphthalen-1-yl)acetamide] | 99.5 | 103
CNCc1ccc2c(c1)CCCC2NC(=O)CC1c2cccn2CCN1S(=O)(=O)c1ccc2cc(OC)ccc2c1 (stereo not shown) [Example 134, 2-[2-[(6-Methoxy-naphthalen-2-yl)sulfonyl]-1,2,3,4-tetrahydro-pyrrolo[1,2-a]pyrazin-1-yl]-N-[6-(methylamino-methyl)-1,2,3,4-tetrahydro-naphthalen-1-yl]-acetamide] | 99.8 | 103
COc1ccc2cc(S(=O)(=O)N3CCn4cccc4C3CC(=O)NC3CCCc4cc(CN5CCOCC5)ccc43)ccc2c1 (stereo not shown) [Example 120, 2-[2-[(6-Methoxy-naphthalen-2-yl)sulfonyl]-1,2,3,4-tetrahydro-pyrrolo[1,2-a]pyrazin-1-yl]-N-[6-(morpholin-4-yl-methyl)-1,2,3,4-tetrahydro-naphthalen-1-yl]-acetamide] | 97.8 | 102
CN(CCC1CCN(c2ccncc2)CC1)C(=O)COCC1c2cccn2CCN1S(=O)(=O)c1ccccc1C(F)(F)F (stereo not shown) [Example 12, N-Methyl-N-(2-(1-(pyridin-4-yl)piperidin-4-yl)ethyl)-2-((2-(2-(trifluoromethyl)phenylsulfonyl)-1,2,3,4-tetrahydropyrrolo[1,2-a]pyrazin-1-yl)methoxy)acetamide] | 99.5 | 99.3
Cc1ccc(S(=O)(=O)N2CCn3cccc3C2CC(=O)NC2CCc3cc(CN4CCCc5ccccc54)ccc3C2)cc1Cl (stereo not shown) [Example 52, 2-[2-[(3-Chloro-4-methyl-phenyl)sulfonyl]-1,2,3,4-tetrahydro-pyrrolo[1,2-a]pyrazin-1-yl]-N-[6-(1,2,3,4-tetrahydro-quinolin-1-yl-methyl)-1,2,3,4-tetrahydro-naphthalen-2-yl]-acetamide] | 96 | 103
CNCc1ccc2c(c1)CCC(NC(=O)CC1c3cccn3CCN1S(=O)(=O)c1cccc(C(F)(F)F)c1)C2 (stereo not shown) [Example 139, N-[6-(Methylamino-methyl)-1,2,3,4-tetrahydro-naphthalen-2-yl]-2-[2-[[3-(trifluoromethyl)phenyl]sulfonyl]-1,2,3,4-tetrahydro-pyrrolo[1,2-a]pyrazin-1-yl]-acetamide] | 99.1 | 103
Cc1ccc(S(=O)(=O)N2CCn3cccc3C2CC(=O)NC2CCCc3cc(CN4CCCc5ccccc54)ccc32)cc1 (stereo not shown) [Example 129, 2-[2-(p-Tolylsulfonyl)-1,2,3,4-tetrahydro-pyrrolo[1,2-a]pyrazin-1-yl]-N-[6-(1,2,3,4-tetrahydro-quinolin-1-yl-methyl)-1,2,3,4-tetrahydro-naphthalen-1-yl]-acetamide] | 46.1 | 74.7
Cc1ccc(S(=O)(=O)N2CCn3cccc3C2CC(=O)NC2CCc3cc(CN(C)C(C)(C)C)ccc3C2)cc1Cl (stereo not shown) [Example 75, N-[6-[(tert-Butyl-methyl-amino)-methyl]-1,2,3,4-tetrahydro-naphthalen-2-yl]-2-[2-[(3-chloro-4-methyl-phenyl)sulfonyl]-1,2,3,4-tetrahydro-pyrrolo[1,2-a]pyrazin-1-yl]-acetamide] | 99.9 | 102
Cc1ccc(S(=O)(=O)N2CCn3cccc3C2CC(=O)NC2CCc3cc(CN4CCCc5ccccc54)ccc3C2)cc1 (stereo not shown) [Example 79, 2-[2-(p-Tolylsulfonyl)-1,2,3,4-tetrahydro-pyrrolo[1,2-a]pyrazin-1-yl]-N-[6-(1,2,3,4-tetrahydro-quinolin-1-yl-methyl)-1,2,3,4-tetrahydro-naphthalen-2-yl]-acetamide] | 57.9 | 99.3
O=C(CC1c2cccn2CCN1S(=O)(=O)c1cccc(C(F)(F)F)c1)NC1CCCc2cc(CN3CCOCC3)ccc21 (stereo not shown) [Example 53, N-[6-(Morpholin-4-yl-methyl)-1,2,3,4-tetrahydro-naphthalen-1-yl]-2-[2-[[3-(trifluoromethyl)phenyl]sulfonyl]-1,2,3,4-tetrahydro-pyrrolo[1,2-a]pyrazin-1-yl]-acetamide] | 99 | 102
COc1ccc2cc(S(=O)(=O)N3CCn4cccc4C3CC(=O)NC3CCc4cc(CN5C6CCCC5CC6)ccc4C3)ccc2c1 (stereo not shown) [Example 103, N-[6-(8-Azabicyclo[3.2.1]octan-8-yl-methyl)-1,2,3,4-tetrahydro-naphthalen-2-yl]-2-[2-[(6-methoxy-naphthalen-2-yl)sulfonyl]-1,2,3,4-tetrahydro-pyrrolo[1,2-a]pyrazin-1-yl]-acetamide] | 100 | 102
Cc1ccc(S(=O)(=O)N2CCn3cccc3C2CC(=O)NC2CCCc3cc(CN4C5CCCC4CC5)ccc32)cc1 (stereo not shown) [Example 108, N-[6-(8-Azabicyclo[3.2.1]octan-8-yl-methyl)-1,2,3,4-tetrahydro-naphthalen-1-yl]-2-[2-(p-tolylsulfonyl)-1,2,3,4-tetrahydro-pyrrolo[1,2-a]pyrazin-1-yl]-acetamide] | 99.9 | 101
